According to US20070049564A1 (Wyeth, priority 2005, published 2007):
Converted amounts (≈) assume the structure as drawn. Read-outs that look alike come from different tables or passages of the source.

Experiments:
S. aureus GC 6335 = test: MIC, broth microdilution; details: Staphylococcus aureus
Procedure: (§1) Antimicrobial susceptibility testing. The in vitro activities of the antibiotics are determined by the broth microdilution method as recommended by the National Committee for Clinical Laboratory Standards (NCCLS) (1). Mueller-Hinton II broth (MHBII)(BBL Cockeysville, Md.) is the medium employed in the testing procedures. Microtiter plates containing serial dilutions of each antimicrobial agent are inoculated with each organism to yield the appropriate density (10^5 CFU/ml) in a 100 μl final volume. The plates are incubated for 18-22 hours at 35° C. in ambient air.
Representative compounds were first incubated in mouse serum for an hour prior to the in vitro testing against a panel of selected gram-positive and gram-negative bacteria strains. All compounds were also pre-incubated in water for an hour prior to testing as control. Representative compounds of Formula I were incubated in human serum prior to MIC determination.

E. faecium GC 2243 = test: MIC, broth microdilution; details: Enterococcus faecium
E. coli GC 2232 = test: MIC, broth microdilution; details: Escherichia coli
E. coli GC 3226 = test: MIC, broth microdilution; details: Escherichia coli
E. coli GC 2270 = test: MIC, broth microdilution; details: Escherichia coli
P. aeruginosa GC 2214 = test: MIC, broth microdilution; details: Pseudomonas aeruginosa
E. coli GC 2271 = test: MIC, broth microdilution; details: Escherichia coli
S. pneumoniae+ GC 4465 = test: MIC, broth microdilution; details: Streptococcus pneumoniae
Procedure: as §1
Representative compounds were first incubated in mouse serum for an hour prior to the in vitro testing against a panel of selected gram-positive and gram-negative bacteria strains. All compounds were also pre-incubated in water for an hour prior to testing as control.

Staph. aureus Smith = test: In vivo activity (oral, iv; ED50) against Staph. aureus Smith in mice
Procedure: Representative examples of compounds of Formula I were tested for the oral efficacy using S. aureus Smith in mice.

S. aureus GC 6469 = test: MIC, broth microdilution; details: Staphylococcus aureus
E. coli = test: Range of MIC for E. coli strains; details: Escherichia coli
E. coli GC 4559 = test: MIC, broth microdilution; details: Escherichia coli
E. faecalis GC 2242 = test: MIC, broth microdilution; details: Enterococcus faecalis
S. pyogenes GC 4563 = test: MIC, broth microdilution; details: Streptococcus pyogenes
S. aureus GC 2216 = test: MIC, broth microdilution; details: Staphylococcus aureus
c. albicans GC 3066 = test: MIC, broth microdilution
E. coli GC 1073 = test: MIC, broth microdilution; details: Escherichia coli
S. aureus GC 4536 = test: MIC, broth microdilution; details: Staphylococcus aureus
S. agalactiae GC 4564 = test: MIC, broth microdilution; details: Streptococcus agalactiae
E. faecalis GC 2265 = test: MIC, broth microdilution; details: Enterococcus faecalis

Compound: CC(C)CC(=O)OCOC(=O)N(CC(=O)Nc1cc(N(C)C)c2c(c1O)C(=O)C1=C(O)[C@]3(O)C(=O)C(C(N)=O)=C(O)[C@@H](N(C)C)[C@@H]3C[C@@H]1C2)C(C)(C)C [Example 53, ({[(2-{[(5aR,6aS,7S,10aS)-9-(aminocarbonyl)-4,7-bis(dimethylamino)-1,8,10a,11-tetrahydroxy-10,12-dioxo-5,5a,6,6a,7,10,10a,12-octahydrotetracen-2-yl]amino}-2-oxoethyl)(tert-butyl)amino]carbonyl}oxy)methyl 3-methylbutanoate]
- MIC (S. aureus GC 6335; GC6335, read-out: MINIMAL INHIBITORY CONCENTRATION MIC, Human Serum): 0.5 µg/mL (≈ 0.672 µM)
- MIC (S. aureus GC 6335; GC6335, read-out: MINIMAL INHIBITORY CONCENTRATION MIC, Mouse Serum): 0.5 µg/mL (≈ 0.672 µM)
- MIC (S. aureus GC 6335; GC6335, read-out: MINIMAL INHIBITORY CONCENTRATION MIC, Water): 1 µg/mL (≈ 1.34 µM)
- MIC (E. faecium GC 2243; GC2243, read-out: MINIMAL INHIBITORY CONCENTRATION MIC, Human Serum): 0.25 µg/mL (≈ 0.336 µM)
- MIC (E. faecium GC 2243; GC2243, read-out: MINIMAL INHIBITORY CONCENTRATION MIC, Mouse Serum): 0.25 µg/mL (≈ 0.336 µM)
- MIC (E. faecium GC 2243; GC2243, read-out: MINIMAL INHIBITORY CONCENTRATION MIC, Water): 0.5 µg/mL (≈ 0.672 µM)
- MIC (E. coli GC 2232; GC2232, read-out: MINIMAL INHIBITORY CONCENTRATION MIC, Human Serum): 8 µg/mL (≈ 10.8 µM)
- MIC (E. coli GC 2232; GC2232, read-out: MINIMAL INHIBITORY CONCENTRATION MIC, Mouse Serum): 0.5 µg/mL (≈ 0.672 µM)
- MIC (E. coli GC 2232; GC2232, read-out: MINIMAL INHIBITORY CONCENTRATION MIC, Water): 32 µg/mL (≈ 43 µM)
- MIC (E. coli GC 3226; GC3226, read-out: MINIMAL INHIBITORY CONCENTRATION MIC, Human Serum): 16 µg/mL (≈ 21.5 µM)
- MIC (E. coli GC 3226; GC3226, read-out: MINIMAL INHIBITORY CONCENTRATION MIC, Mouse Serum): 1 µg/mL (≈ 1.34 µM)
- MIC (E. coli GC 3226; GC3226, read-out: MINIMAL INHIBITORY CONCENTRATION MIC, Water): 32 µg/mL (≈ 43 µM)
- MIC (E. coli GC 2270; GC2270, read-out: MINIMAL INHIBITORY CONCENTRATION MIC, Human Serum): 8 µg/mL (≈ 10.8 µM)
- MIC (E. coli GC 2270; GC2270, read-out: MINIMAL INHIBITORY CONCENTRATION MIC, Mouse Serum): 1 µg/mL (≈ 1.34 µM)
- MIC (E. coli GC 2270; GC2270, read-out: MINIMAL INHIBITORY CONCENTRATION MIC, Water): 32 µg/mL (≈ 43 µM)
- MIC (P. aeruginosa GC 2214; GC2214, read-out: MINIMAL INHIBITORY CONCENTRATION MIC, Human Serum): > 64 µg/mL
- MIC (P. aeruginosa GC 2214; GC2214, read-out: MINIMAL INHIBITORY CONCENTRATION MIC, Mouse Serum): 64 µg/mL (≈ 86 µM)
- MIC (P. aeruginosa GC 2214; GC2214, read-out: MINIMAL INHIBITORY CONCENTRATION MIC, Water): > 64 µg/mL
- MIC (E. coli GC 2271; GC2271, read-out: MINIMAL INHIBITORY CONCENTRATION MIC, Human Serum): 8 µg/mL (≈ 10.8 µM)
- MIC (E. coli GC 2271; GC2271, read-out: MINIMAL INHIBITORY CONCENTRATION MIC, Mouse Serum): 0.5 µg/mL (≈ 0.672 µM)
- MIC (E. coli GC 2271; GC2271, read-out: MINIMAL INHIBITORY CONCENTRATION MIC, Water): 16 µg/mL (≈ 21.5 µM)
- MIC (S. pneumoniae+ GC 4465; read-out: MINIMAL INHIBITORY CONCENTRATION MIC, Human Serum): 1 µg/mL (≈ 1.34 µM)
- MIC (S. pneumoniae+ GC 4465; read-out: MINIMAL INHIBITORY CONCENTRATION MIC, Mouse Serum): 2 µg/mL (≈ 2.69 µM)
- MIC (S. pneumoniae+ GC 4465; read-out: MINIMAL INHIBITORY CONCENTRATION MIC, Water): 2 µg/mL (≈ 2.69 µM)
- ED50 (Staph. aureus Smith; Staphylococcus aureus, in Mus musculus, iv, read-out: ED50 SIV (Staph aureus Smith)): 0.73 mg/kg
- ED50 (Staph. aureus Smith; Staphylococcus aureus, in Mus musculus, po, read-out: ED50 SOD (Staph aureus Smith)): 5.08 mg/kg
- ED50 (Staph. aureus Smith; Staphylococcus aureus, in Mus musculus, po, read-out: ED50 Staph Smith SOD): 5.08 mg/kg
- ED50 (Staph. aureus Smith; iv, read-out: ED50 Staph Smith SIV): 0.73 mg/kg
- MIC (S. aureus GC 6469; GC6469, read-out: MINIMAL INHIBITORY CONCENTRATION MIC, Human Serum): 1 µg/mL (≈ 1.34 µM)
- MIC (S. aureus GC 6469; GC6469, read-out: MINIMAL INHIBITORY CONCENTRATION MIC, Mouse Serum): 1 µg/mL (≈ 1.34 µM)
- MIC (S. aureus GC 6469; GC6469, read-out: MINIMAL INHIBITORY CONCENTRATION MIC, Water): 2 µg/mL (≈ 2.69 µM)
- MIC (E. coli; 20 h, read-out: Range of MIC, E. coli (Mouse Serum)): 0.25 to 1 µg/mL (≈ 0.336 to 1.34 µM)
- MIC (E. coli; read-out: Minimum inhibitory concentration (MIC), E. coli (Human Serum)): 8 to 16 µg/mL (≈ 10.8 to 21.5 µM)
- MIC (E. coli; read-out: Minimum inhibitory concentration (MIC), E. coli (water)): 16 to 64 µg/mL (≈ 21.5 to 86 µM)
- MIC (E. coli; read-out: Range of MIC, E. coli (Water)): 16 to 64 µg/mL (≈ 21.5 to 86 µM)
- MIC (E. coli GC 4559; GC4559, read-out: MINIMAL INHIBITORY CONCENTRATION MIC, Human Serum): 16 µg/mL (≈ 21.5 µM)
- MIC (E. coli GC 4559; GC4559, read-out: MINIMAL INHIBITORY CONCENTRATION MIC, Mouse Serum): 1 µg/mL (≈ 1.34 µM)
- MIC (E. coli GC 4559; GC4559, read-out: MINIMAL INHIBITORY CONCENTRATION MIC, Water): 32 µg/mL (≈ 43 µM)
- MIC (E. faecalis GC 2242; GC2242, read-out: MINIMAL INHIBITORY CONCENTRATION MIC, Human Serum): 2 µg/mL (≈ 2.69 µM)
- MIC (E. faecalis GC 2242; GC2242, read-out: MINIMAL INHIBITORY CONCENTRATION MIC, Mouse Serum): 0.5 µg/mL (≈ 0.672 µM)
- MIC (E. faecalis GC 2242; GC2242, read-out: MINIMAL INHIBITORY CONCENTRATION MIC, Water): 2 µg/mL (≈ 2.69 µM)
- MIC (S. pyogenes GC 4563; GC4563, read-out: MINIMAL INHIBITORY CONCENTRATION MIC, Human Serum): 0.25 µg/mL (≈ 0.336 µM)
- MIC (S. pyogenes GC 4563; GC4563, read-out: MINIMAL INHIBITORY CONCENTRATION MIC, Mouse Serum): 0.12 µg/mL (≈ 0.161 µM)
- MIC (S. pyogenes GC 4563; GC4563, read-out: MINIMAL INHIBITORY CONCENTRATION MIC, Water): 0.25 µg/mL (≈ 0.336 µM)
- MIC (S. aureus GC 2216; GC2216, read-out: MINIMAL INHIBITORY CONCENTRATION MIC, Human Serum): 0.5 µg/mL (≈ 0.672 µM)
- MIC (S. aureus GC 2216; GC2216, read-out: MINIMAL INHIBITORY CONCENTRATION MIC, Mouse Serum): 0.5 µg/mL (≈ 0.672 µM)
- MIC (S. aureus GC 2216; GC2216, read-out: MINIMAL INHIBITORY CONCENTRATION MIC, Water): 1 µg/mL (≈ 1.34 µM)
- MIC (c. albicans GC 3066; Candida albicans, GC3066, read-out: MINIMAL INHIBITORY CONCENTRATION MIC): > 64 µg/mL
- MINIMAL INHIBITORY CONCENTRATION MIC (c. albicans GC 3066; Human Serum): >64 UG/ML
- MINIMAL INHIBITORY CONCENTRATION MIC (c. albicans GC 3066; Mouse Serum): >64 UG/ML
- MIC (E. coli GC 1073; GC1073, read-out: MINIMAL INHIBITORY CONCENTRATION MIC, Human Serum): 16 µg/mL (≈ 21.5 µM)
- MIC (E. coli GC 1073; GC1073, read-out: MINIMAL INHIBITORY CONCENTRATION MIC, Mouse Serum): 1 µg/mL (≈ 1.34 µM)
- MIC (E. coli GC 1073; GC1073, read-out: MINIMAL INHIBITORY CONCENTRATION MIC, Water): 32 µg/mL (≈ 43 µM)
- MIC (S. aureus GC 4536; GC4536, read-out: MINIMAL INHIBITORY CONCENTRATION MIC, Human Serum): 0.5 µg/mL (≈ 0.672 µM)
- MIC (S. aureus GC 4536; GC4536, read-out: MINIMAL INHIBITORY CONCENTRATION MIC, Mouse Serum): 0.25 µg/mL (≈ 0.336 µM)
- MIC (S. aureus GC 4536; GC4536, read-out: MINIMAL INHIBITORY CONCENTRATION MIC, Water): 1 µg/mL (≈ 1.34 µM)
- MIC (S. agalactiae GC 4564; GC4564, read-out: MINIMAL INHIBITORY CONCENTRATION MIC, Human Serum): 0.5 µg/mL (≈ 0.672 µM)
- MIC (S. agalactiae GC 4564; GC4564, read-out: MINIMAL INHIBITORY CONCENTRATION MIC, Mouse Serum): < 0.06 µg/mL
- MIC (S. agalactiae GC 4564; GC4564, read-out: MINIMAL INHIBITORY CONCENTRATION MIC, Water): 0.5 µg/mL (≈ 0.672 µM)
- MIC (E. faecalis GC 2265; GC2265, read-out: MINIMAL INHIBITORY CONCENTRATION MIC, Human Serum): 0.5 µg/mL (≈ 0.672 µM)
- MIC (E. faecalis GC 2265; GC2265, read-out: MINIMAL INHIBITORY CONCENTRATION MIC, Mouse Serum): 1 µg/mL (≈ 1.34 µM)
- MIC (E. faecalis GC 2265; GC2265, read-out: MINIMAL INHIBITORY CONCENTRATION MIC, Water): 4 µg/mL (≈ 5.38 µM)
